Target: T1, human cloned 5-HT6 receptors (Homo sapiens, UniProt P50406)
T1 construct: expressed in transfected cells; host or cells: HeLa cells
Format: binding
Settings: for inhibition at 1 µM / % Inhibition: test compound dose 1000 nM; for Ki: [3H]-LSD 3.0 nM, Hela cell membranes, read-out: 5-HT6 Binding Ki
Method: This operation is repeated.
The reaction is allowed to proceed in the dark for 120 min at room temperature, at which time, the bound ligand-receptor complex is filtered off on a 96 well unifilter with a Packard Filtermate® 196 Harvester. The bound complex caught on the filter disk is allowed to air dry and the radioactivity is measured in a Packard TopCount® equipped with six photomultiplier detectors, after the addition of 40.0 μl Microscint®-20 scintillant to each shallow well. The unifilter plate is heat-sealed and counted in a PackardTopCount® with a tritium efficiency of 31.0%.
Specific binding to the 5-HT6 receptor is defined as the total radioactivity bound less the amount bound in the presence of 10.0 μM unlabeled methiothepin. Binding in the presence of varying concentrations of test compound is expressed as a percentage of specific binding in the absence of test compound. The results are plotted as logit % bound versus log concentration of test compound. Nonlinear regression analysis of data points with a computer assisted program Prism® yields both the IC50 and the Ki values of test compounds with 95% confidence limits.
The amount of displacement by the test compound is given in percent (%) inhibition and is derived from the following equation: [formula] where B0 is the amount of CPM bound in the presence of the testing agent. NSB represents the CPM bound in the presence of a saturating concentration of a displacer and TB represents the total amount of CPM bound at zero (0) concentration of test compound.
Alternatively, a linear regression line of decline of data points is plotted, from which the IC50 value can be read off and the Ki value determined by solving the following equation: [formula] where L is the concentration of the radioactive ligand used and KD is the dissociation constant of the ligand for the receptor, both expressed in nM.

T1 sequence (P50406 whole entry): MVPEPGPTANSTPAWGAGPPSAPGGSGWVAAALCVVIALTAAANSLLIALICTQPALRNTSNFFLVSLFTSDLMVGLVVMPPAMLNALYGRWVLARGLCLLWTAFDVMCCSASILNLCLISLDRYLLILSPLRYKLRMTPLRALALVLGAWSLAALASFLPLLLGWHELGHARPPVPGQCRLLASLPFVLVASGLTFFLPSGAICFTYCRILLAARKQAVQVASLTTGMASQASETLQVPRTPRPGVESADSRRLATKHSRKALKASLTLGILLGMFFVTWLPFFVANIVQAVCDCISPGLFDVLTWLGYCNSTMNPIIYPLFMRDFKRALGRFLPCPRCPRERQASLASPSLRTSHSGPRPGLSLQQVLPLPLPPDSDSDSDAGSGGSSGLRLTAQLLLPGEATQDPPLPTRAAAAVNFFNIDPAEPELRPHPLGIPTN

| SMILES | inhibition at 1 µM (displacement of [3H]-LSD) [%] | other results |
| --- | --- | --- |
| N=C(N)NN=C(C=Cc1ccccc1Cl)c1c(-c2ccc(Cl)cc2)[nH]c2ccccc12 [Example 63, 2-{3-(2-chloro-phenyl)-1-[2-(4-chloro-phenyl)-1H-indol-3-yl]-allylidene}hydrazinecarboximidamide] | 31.7 | – |
| CC(=NNC(=N)N)c1c(-c2ccc(Cl)cc2)[nH]c2ccccc12 [Example 64, 2-{1-[2-(4-chloro-phenyl)-1H-indol-3-yl]-ethylidene}hydrazinecarboximidamide] | 98.5 | Ki: 17 nM |
| CC(=NNC(=N)N)c1c(-c2ccc(F)c(Cl)c2)[nH]c2ccccc12 [Example 65, 2-{1-[2-(3-chloro-4-fluoro-phenyl)-1H-indol-3-yl]-ethylidene}hydrazinecarboximidamide] | 87.2 | – |
| CN(N=C(c1ccc(Cl)cc1)c1c(-c2ccccc2)[nH]c2ccccc12)C1=NCCN1 [Example 66, N′-[(4-chlorophenyl)-(2-phenyl-1H-indol-3-yl)-methylene]-N-(4,5,-dihydro-1H-imidazol-2-yl)-N-methylhydrazine] | – | % Inhibition (displacement of [3H]-LSD): 18.1% |
| CN(N=C(c1ccc(Cl)cc1)c1c(-c2ccc(Cl)cc2)[nH]c2ccccc12)C1=NCCN1 [Example 67, N′-{(4-chlorophenyl)-[2-(4-chlorophenyl)-1H-indol-3-yl]-methylene}-N-(4,5,-dihydro-1H-imidazol-2-yl)-N-methylhydrazine] | – | % Inhibition (displacement of [3H]-LSD): 35.2% |
| CC(C)=CC(=NN(C)C1=NCCN1)c1c(-c2ccccc2)[nH]c2ccccc12 [Example 68, N-(4,5-dihydro-1H-imidazol-2-yl)-N-methyl-N′-[3-methyl-1-(2-phenyl-1H-indol-3-yl)-but-2-enylidene]hydrazine] | 24.8 | – |
| CN(N=C(CCc1ccccc1)c1c(-c2ccccc2)[nH]c2ccccc12)C1=NCCN1 [Example 69, N-(4,5-dihydro-1H-imidazol-2-yl)-N-methyl-N′-[3-phenyl-1-(2-phenyl-1H-indol-3-yl)-propylidene]hydrazine] | 23 | – |
| CN(N=C(CCc1ccccc1)c1c(-c2ccc(Cl)cc2)[nH]c2ccccc12)C1=NCCN1 [Example 70, N′-{1-[2-(4-chloro-phenyl)-1H-indol-3-yl]-3-phenyl-propylidene}-N-(4,5-dihydro-1H-imidazol-2-yl)-N-methylhydrazine] | 33.9 | – |
| CN(N=C(C=Cc1ccccc1)c1c(-c2ccccc2)[nH]c2ccccc12)C1=NCCN1 [Example 71, N-(4,5-dihydro-1H-imidazol-2-yl)-N-methyl-N′-[3-phenyl-1-(2-phenyl-1H-indol-3-yl)-allylidene]hydrazine] | 30 | – |
| CN(N=C(C=Cc1ccccc1)c1c(-c2ccc(Cl)cc2)[nH]c2ccccc12)C1=NCCN1 [Example 72, N′-{1-[2-(4-chloro-phenyl)-1H-indol-3-yl]-3-phenyl-allylidene}-N-(4,5-dihydro-1H-imidazol-2-yl)-N-methylhydrazine] | 40.9 | – |
| CN(N=C(Cc1ccc(Cl)cc1)c1c(-c2ccc(Cl)cc2)[nH]c2ccccc12)C1=NCCN1 [Example 73, N′-{2-(4-chloro-phenyl)-1-[2-(4-chloro-phenyl)-1H-indol-3-yl]-ethylidene}-N-(4,5-dihydro-1H-imidazol-2-yl)-N-methylhydrazine] | 37.5 | – |
| CC(=NNC(=N)N)c1c(-c2ccc(F)cc2)[nH]c2ccccc12 [Example 74, 2-{1-[2-(4-fluoro-phenyl)-1H-indol-3-yl]-ethylidene}hydrazinecarboximidamide] | – | inhibition at 0.01 µM (test compound dose 10 nM, displacement of [3H]-LSD): 38.3% |
| CC(=NNC(=N)N)c1c(-c2ccc(F)c(F)c2)[nH]c2ccccc12 [Example 75, 2-{1-[2-(3,4-difluoro-phenyl)-1H-indol-3-yl]-ethylidene}hydrazinecarboximidamide] | 73.2 | – |
| CC(=NNC(=N)N)c1c(-c2ccccc2)n(CCc2ccccc2)c2ccccc12 [Example 78, 2-{[1-(2-Phenethyl)-2-phenyl-1H-indol-3-yl]ethylidene}hydrazine-carboximidamide] | – | % Inhibition (displacement of [3H]-LSD): 84.2% |
| Cn1c(-c2ccccc2)c(C(=NNC(=N)N)C2CCCCC2)c2ccccc21 [Example 79, 2-[cyclohexyl-(1-methyl-2-phenyl-1H-indol-3-yl)-methylene]hydrazinecarboximidamide] | 31.3 | – |
| N=C(N)NN=C(c1c(-c2ccccc2)n(-c2ccccc2)c2ccccc12)C1CCCCC1 [Example 80, 2-[cyclohexyl-(1,2-diphenyl-1H-indol-3-yl)-methylene]hydrazinecarboximidamide] | 8.7 | – |
| CC(C)C(=NNC(=N)N)c1c(-c2ccccc2)n(C)c2ccccc12 [Example 81, 2-[1-(1-methyl-2-phenyl-1H-indol-3-yl)-2-methyl-propylidene]hydrazinecarboximidamide] | 43.2 | – |

| SMILES | inhibition at 1 µM (displacement of [3H]-LSD) [%] | other results |
| --- | --- | --- |
| CC(C)C(=NNC(=N)N)c1c(-c2ccccc2)n(-c2ccccc2)c2ccccc12 [Example 82, 2-[1-(1,2-diphenyl-1H-indol-3-yl)-2-methyl-propylidene]hydrazinecarboximidamide] | 21.5 | – |
| Cn1c(-c2ccccc2)c(C(Cc2ccccc2)=NNC(=N)N)c2ccccc21 [Example 83, 2-[1-(1-methyl-2-phenyl-1H-indol-3-yl)-2-phenyl-ethylidene]hydrazinecarboximidamide] | 31 | – |
| N=C(N)NN=C(Cc1ccccc1)c1c(-c2ccccc2)n(-c2ccccc2)c2ccccc12 [Example 84, 2-[1-(1,2-diphenyl-1H-indol-3-yl)-2-phenyl-ethylidene]hydrazinecarboximidamide] | 22.9 | – |
| CC(=NNC(=N)N)c1c(-c2ccccc2)n(C)c2ccccc12 [Example 86, 2-[1-(1-methyl-2-phenyl-1H-indol-3-yl)-ethylidene]hydrazinecarboximidamide] | 99.4 | Ki: 19 nM |
| CC(=NNC(=N)N)c1c(-c2ccccc2)n(-c2ccccc2)c2ccccc12 [Example 87, 2-[1-(1,2-diphenyl-1H-indol-3-yl)-ethylidene]hydrazinecarboximidamide] | 31.3 | – |
| Cn1c(-c2ccccc2)c(C=NNC(=N)N)c2ccccc21 [Example 89, 2-[(1-methyl-2-phenyl-1H-indol-3-yl)-methylene]hydrazinecarboximidamide] | 70.6 | – |
| CN(N=Cc1c(-c2ccccc2)n(C)c2ccccc12)C1=NCCN1 [Example 90, N-(4,5-dihydro-1H-imidazol-2-yl)-N′-[(1-methyl-2-phenyl-1H-indol-3-yl)-methylene]-N-methylhydrazine] | 99.9 | Ki: 11 nM |
| N=C(N)NN=Cc1c(-c2ccccc2)n(-c2ccccc2)c2ccccc12 [Example 91, 2-[(1,2-diphenyl-1H-indol-3-yl)-methylene]hydrazinecarboximidamide] | 24 | – |
| CN(N=Cc1c(-c2ccccc2)n(-c2ccccc2)c2ccccc12)C1=NCCN1 [Example 92, N-(4,5-dihydro-1H-imidazol-2-yl)-N′-[(1,2-diphenyl-1H-indol-3-yl)-methylene]-N-methylhydrazine] | 17.8 | – |
| CC(=NNC(=N)N)c1c(-c2ccc(Cl)cc2)n(Cc2ccccc2)c2ccccc12 [Example 93, 2-{1-[1-benzyl-2-(4-chloro-phenyl)-1H-indol-3-yl]-ethylidene}hydrazinecarboximidamide] | 22.3 | – |
| N=C(N)NN=Cc1c(-c2ccc(Cl)cc2)n(Cc2ccccc2)c2ccccc12 [Example 94, 2-{[1-benzyl-2-(4-chloro-phenyl)-1H-indol-3-yl]-methylene}hydrazinecarboximidamide] | 19.7 | – |
| CN(N=Cc1c(-c2ccc(Cl)cc2)n(Cc2ccccc2)c2ccccc12)C1=NCCN1 [Example 95, N-{[1-benzyl-2-(4-chloro-phenyl)-1H-indol-3-yl]-methylene}-N′-(4,5-dihydro-1H-imidazol-2-yl)-N-methylhydrazine] | – | % Inhibition (displacement of [3H]-LSD): 20.0% |
| N=C(N)NN=Cc1c(-c2ccc(Cl)cc2)n(Cc2ccccc2Cl)c2ccccc12 [Example 96, 2-{[1-(2-chloro-benzyl)-2-(4-chloro-phenyl)-1H-indol-3-yl]-methylene}hydrazinecarboximidamide] | 15.6 | – |
| CN(N=Cc1c(-c2ccc(Cl)cc2)n(Cc2ccccc2Cl)c2ccccc12)C1=NCCN1 [Example 97, N-{[1-(2-chloro-benzyl)-2-(4-chloro-phenyl)-1H-indol-3-yl]-methylene}-N′-(4,5-dihydro-1H-imidazol-2-yl)-N-methylhydrazine] | – | % Inhibition (displacement of [3H]-LSD): 0.4% |
| Cc1ccc(Cn2c(-c3ccc(Cl)cc3)c(C=NNC(=N)N)c3ccccc32)cc1 [Example 98, 2-{[2-(4-chloro-phenyl)-1-(4-methyl-benzyl)-1H-indol-3-yl]-methylene}hydrazinecarboximidamide] | 21.1 | – |
| Cc1ccc(Cn2c(-c3ccc(Cl)cc3)c(C=NN(C)C3=NCCN3)c3ccccc32)cc1 [Example 99, N-{[2-(4-chloro-phenyl)-1-(4-methyl-benzyl)-1H-indol-3-yl]-methylene}-N′-(4,5-dihydro-1H-imidazol-2-yl)-N-methylhydrazine] | – | % Inhibition (displacement of [3H]-LSD): 5.7% |

From patent US6951881B2, “(1-substituted-indol-3-yl) alkylidenehydrazinecarboximidamide derivatives as 5-hydroxytryptamine-6 ligands” (Wyeth, priority 2002, dated 2005)
